From patent publication US20250144187A1, “COMBINATION OF HYDROLASES AND ANTI-MICROORGANISM DRUGS AND USES THEREOF” (CENTRE FOR EYE AND VISION RESEARCH LIMITED, priority 2023, published 2025)

Tests used:
MRSA in ARPE-19 cells = experiment: Cell infection model, tedizolid phosphate/lysozyme
MRSA = experiment: TMT proteomics analysis, tedizolid phosphate/lysozyme; type: cell-based, Staphylococcus aureus
[1] = test system: ocular bacterial communities in tears; experiment: Microbiome assay (16S rRNA) in ocular infection model; type: in vivo, C57BL/6 mice; conditions: combination therapy; infected untreated ~3%, healthy 0.052%
MRSA-infected skin wound = experiment: Rat skin infection model, tedizolid phosphate/lysozyme; type: in vivo, Sprague Dawley (SD) rats; conditions: combination therapy
Protocol: 19) Skin infection model. […] Except 3 rats in uninfected group, other 12 rats were infected by 5×10^11 CFUs of mid-log phase MRSA from our own collection. Briefly, all rats were firstly pec-depilated by using 10% Na2S to get an uncovered back area of 4 cm×4 cm before 24 hours for the anesthetization on rats. Then, the skin of anesthetized rat was removed until fascial region under sterile condition, followed by spraying 5.0×10^11 CFUs of mid-log phase MRSA on wound (3 cm×3 cm). Bacterial suspensions were collected by below-described method [Zhang. […] Specifically, mid-log phase MRSA was collected by centrifugation at 4500 g for 15 minutes, washed with PBS for 3 limes and re-suspended in cold PBS to get bacterial suspension with an initial density of about 4.0×10^11 CFU/ml according to pre-experiment. Next, 1.25 ml of bacterial suspension was sprayed onto wound. […] All sterile medical gauzes were 0.2 g/cm^2, and further covered by two layers of sterile gauzes and fixed by sterile tapes. Next, rats were monitored until they were fully awake, and then returned to their cages. After 24 hours infection, these sterile medical gauzes were replaced with new sterile medical gauzes soaking different drugs, i.e., normal saline, tedizolid phosphate (0.167 mg/kg) or lysozyme (0.833 mg/kg), or their combination (0.167 mg tedizolid phosphates/kg rat+0.833 mg lysosyme/kg rat), respectively. Meanwhile, rats in uninfected group were treated with new sterile medical gauzes soaking normal saline. All steps were repeated at 48-, 72-, 96-, 120- and 144-hr post-inoculation. At 168 hours post-inoculation, all rats were sacrificed to collect their wounds. These collected tissues were fixed in 10% formalin for at least 24 hours and embedded in paraffin. Next, about 4-μm sections were analyzed by using the hematoxylin and eosin (H-E) staining kit. […] Meanwhile, this homogenate was also 10-fold gradient-diluted in 96-well plate to figure out the bacterial load in infected wound according to quantitative grown colony after overnight culture. […]

[2] = combination therapy compared with lysozyme alone, 1 hour

`Cn1nnc(-c2ccc(-c3ccc(N4C[C@H](COP(=O)(O)O)OC4=O)cc3F)cn2)n1` [tedizolid phosphate, Tedizolid Phosphate] was tested, and the “death of infected ARPE-19 cells” value (MRSA in ARPE-19 cells; 1.0 μg/ml tedizolid phosphate + 0.5 mg/ml lysozyme, MOI 10) was “cell death was prevented”, the “bacterial load in ARPE-19 cells” value (MRSA in ARPE-19 cells; ≥1.0 μg/ml tedizolid phosphate in the presence of 0.5 mg/ml lysozyme, reduced from 10^7) was 10^4 CFU/ml and the “level of FtsA” value (MRSA; combination therapy) was 0.003 fold. The “level of OatA (Q2FV54)” value (MRSA; combination therapy) was “significant increase”, the “level of SepF” value (MRSA; combination therapy) was 0.5 fold and the “expression of ornithine carbamoyltransferase (Q5HCR3)” value (MRSA; [2]) was 0.5 fold. The “level of arginine deiminase (Q5HKU2)” value (MRSA; [2]) was 3.9 fold, the “level of urease subunit alpha (A5IV71)” value (MRSA; [2]) was 1,5 fold and the “phosphoglycerate kinase (Q5HQV3) level” value (MRSA; combination therapy, 1 hour) was 0.005 fold. For the same molecule, the “probable malate:quinone oxidoreductase I (P65421) level” value (MRSA; combination therapy, 1 hour) was 0.12 fold, the “proportion of Staphylococcus in tear bacterial communities” value [1] was roughly 0.078% and the “decrease in the level of IL-6” value (MRSA-infected skin wound; 7 days) was “more than 20%”. The “decrease in the level of ROS” value (MRSA-infected skin wound; 7 days) was greater than 70% and the “reduction of bacterial load in the wound” value (MRSA-infected skin wound; 168 hours post-inoculation) was > 10^6 fold.
